From patent US8318746B2, “Nitrogen-containing five-membered heterocyclic compound” (Takeda Pharmaceutical Company Limited, priority 2007, dated 2012) come the findings set out here.

A word on the Emax: it is the maximal effect, on the per cent scale that the assay sets. As a reminder, the melting point is the temperature of the solid-liquid transition.

The target of the first series is T1, GST-hLGK1 (GST added to the amino terminal of human liver GK) (Homo sapiens, UniProt P35557).
T1 construct: with a BamHI site added to immediately before the initiation codon; made in house; host or cells: Escherichia coli BL21 (Stratagene), plasmid pGEX6P-2/hLGK1
T1 sequence (P35557 1-464 isoform P35557-3): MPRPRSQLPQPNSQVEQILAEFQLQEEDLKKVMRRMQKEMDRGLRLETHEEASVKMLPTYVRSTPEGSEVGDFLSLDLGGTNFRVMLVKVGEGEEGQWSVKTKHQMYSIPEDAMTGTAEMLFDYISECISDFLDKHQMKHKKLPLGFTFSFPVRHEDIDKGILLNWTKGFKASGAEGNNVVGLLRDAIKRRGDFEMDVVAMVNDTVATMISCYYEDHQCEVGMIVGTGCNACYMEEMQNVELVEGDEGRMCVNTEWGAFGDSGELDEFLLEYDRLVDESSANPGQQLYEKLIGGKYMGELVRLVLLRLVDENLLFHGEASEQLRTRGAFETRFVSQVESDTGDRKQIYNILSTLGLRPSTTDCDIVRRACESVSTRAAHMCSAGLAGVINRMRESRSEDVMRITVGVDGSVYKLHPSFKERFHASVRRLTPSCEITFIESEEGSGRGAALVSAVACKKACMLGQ
In words: Measurement of GK activation value. It counts as biochemical. Conditions: test compound final concentration 10 μmol/L; reaction rate divided by that of control group (50% DMSO without test compound); Mant-ATP substrate, D-glucose, 37° C., 60 min. As to the method:
To each well of a 384-well black plate (Nalge Nunc International K.K.) was added 5 μL of 50% dimethyl sulfoxide solution containing test compound diluted to 100 μmol/L. Then, GST-hLGK1 obtained in Reference Example 2A was diluted with measurement buffer (containing 50 mM HEPES (pH 7.4), 200 mM KCl, 5 mM MgCl2, 2.5 mM DTT and 50 μM 2′-(or-3′)—O—(N-methylanthraniloyl) adenosine 5′-triphosphate (Mant-ATP) (Jena BioScience)) to 6 μg/mL and 35 μL thereof was added to each well.
Each well was stood at 37° C. for 10 min, 25 mM D-glucose solution (10 μL) was added to start the reaction. The final concentration of the test compound was 10 μmol/L.
Each, well after the reaction was stood at 37° C. for 60 min, and the reaction was quenched by adding 25 μL of a quenching solution (containing 200 mM HEPES (pH 7.4), 20 mM MgCl2, 200 mM EDTA, 0.03% Triton-X 100, 0.3% Coating 3 reagent (Caliper Life Sciences, Inc.)).
2′-(or-3′)-O-(N-methylanthraniloyl)adenosine 5′-triphosphate (Mant-ATP, substrate) and Mant-ADP (reaction resultant product) were separated from each well after the reaction by a microchip type capillary electrophoresis apparatus 250 HTS (Caliper Life Sciences, Inc.). The reaction rate [(reaction resultant product peak height)/(reaction resultant product peak height+substrate peak height)×100(%)] was calculated from the ratio of the substrate peak height and reaction resultant product peak height obtained by fluorescence detection (excitation wavelength 355 nm, measurement wavelength 460 nm) and used as the index of GK activity.
As a control group, the reaction rate was calculated in the same manner as above except that “solution in 50% dimethyl sulfoxide (without test compound)” was used instead of “solution of test compound in 50% dimethyl sulfoxide”.
The reaction rate of the well (test compound addition group) added with the test compound was divided by the reaction rate of the control group and the obtained percentage was taken as the GK activation value (Emax) of the test compound.
The molecule `O=C(c1[nH]c(C(CC2CCCC2)c2ccc(S(=O)(=O)C3CC3)cc2)nc1F)C1CC1` (stereo not shown) [Example 24, (2-{2-cyclopentyl-1-[4-(cyclopropylsulfonyl)phenyl]ethyl}-4-fluoro-1H-imidazol-5-yl)(cyclopropyl)methanone] registered an Emax at 10 µM of 190%.
As for `O=C1CC[C@H](CC(c2ccc(S(=O)(=O)C3CC3)cc2)c2nc(F)c(C(=O)C3CCC3)[nH]2)C1` (stereo partly drawn) [Example 29, (3R)-3-{2-[5-(cyclobutylcarbonyl)-4-fluoro-1H-imidazol-2-yl]-2-[4-(cyclopropylsulfonyl)phenyl]ethyl}cyclopentanone], the Emax at 10 µM amounted to 218%.
The molecule `O=S(=O)(c1ccc(C(CC2CCOCC2)c2ccc(-c3ncc(C(O)CO)s3)[nH]2)cc1)C1CC1` (stereo not shown) [Example 34, 1-[2-(5-{1-[4-(cyclopropylsulfonyl)phenyl]-2-(tetrahydro-2H-pyran-4-yl)ethyl}-1H-pyrrol-2-yl)-1,3-thiazol-5-yl]ethane-1,2-diol] came in with an Emax at 10 µM of 178%.
Same read-out and setting: in the case of `O=S(=O)(c1ccc(C(CC2CCOCC2)c2ccc(-c3ccc(C(O)CO)cn3)[nH]2)cc1)C1CC1` (stereo not shown) [Example 42, 1-[6-(5-{1-[4-(cyclopropylsulfonyl)phenyl]-2-(tetrahydro-2H-pyran-4-yl)ethyl}-1H-pyrrol-2-yl)pyridin-3-yl]ethane-1,2-diol] it was 156%.
The same measure, in the same setting: in the case of `O=S(=O)(c1ccc(C(CC2CCOCC2)c2ccc(-c3ccc(C(CO)CO)cn3)[nH]2)cc1)C1CC1` (stereo not shown) [Example 53, 2-[6-(5-{1-[4-(cyclopropylsulfonyl)phenyl]-2-(tetrahydro-2H-pyran-4-yl)ethyl}-1H-pyrrol-2-yl)pyridin-3-yl]propane-1,3-diol] it was 148%; in that of `O=S(=O)(c1ccc(C(CC2CCOCC2)c2ccc(-c3ccc(CN4CC[S+]([O-])CC4)cn3)[nH]2)cc1)C1CC1` (stereo not shown) [Example 59, 4-{[6-(5-{1-[4-(cyclopropylsulfonyl)phenyl]-2-(tetrahydro-2H-pyran-4-yl)ethyl}-1H-pyrrol-2-yl)pyridin-3-yl]methyl}thiomorpholine 1-oxide], 151%.
The molecule `CC(=O)N1CCN(Cc2ccc(-c3ccc(C(CC4CCOCC4)c4ccc(S(=O)(=O)C5CC5)cc4)[nH]3)nc2)CC1` (stereo not shown) [Example 62, 1-acetyl-4-{[6-(5-{1-[4-(cyclopropylsulfonyl)phenyl]-2-(tetrahydro-2H-pyran-4-yl)ethyl}-1H-pyrrol-2-yl)pyridin-3-yl]methyl}piperazine] yielded an Emax at 10 µM of 153%.
The same measure, in the same setting: in the case of `O=S1(=O)CCN(Cc2ccc(-c3ccc(C(CC4CCOCC4)c4ccc(S(=O)(=O)C5CC5)cc4)[nH]3)nc2)CC1` (stereo not shown) [Example 63] it was 154%; in that of `CS(=O)(=O)c1ccc(C(CC2CCOCC2)c2ccc(-c3ccc(C(O)CO)cn3)[nH]2)cc1Cl` (stereo not shown) [Example 91, 1-[6-(5-{1-[3-chloro-4-(methylsulfonyl)phenyl]-2-(tetrahydro-2H-pyran-4-yl)ethyl}-1H-pyrrol-2-yl)pyridin-3-yl]ethane-1,2-diol], 142%; in that of `CC(C)(O)C(O)c1ccc(-c2ccc(C(CC3CCOCC3)c3ccc(S(=O)(=O)C4CC4)cc3)[nH]2)nc1` (stereo not shown) [Example 127, 1-[6-(5-{1-[4-(cyclopropylsulfonyl)phenyl]-2-(tetrahydro-2H-pyran-4-yl)ethyl}-1H-pyrrol-2-yl)pyridin-3-yl]-2-methylpropane-1,2-diol], 139%.
Turning to `CC(O)c1cnc(-c2ccc(C(CC3CCOCC3)c3ccc(S(=O)(=O)C4CC4)cc3)[nH]2)s1` (stereo not shown) [Example 151, 1-[2-(5-[1-[4-(cyclopropylsulfonyl)phenyl]-2-(tetrahydro-2H-pyran-4-yl)ethyl]-1H-pyrrol-2-yl)-1,3-thiazol-5-yl]ethanol], the maximal response (Emax) at 10 µM was 167%.
For `CCS(=O)(=O)CCNCc1cnc(-c2ccc(C(CC3CCOCC3)c3ccc(S(=O)(=O)C4CC4)cc3)[nH]2)s1.Cl` (stereo not shown) [Example 160, N-{[2-(5-{1-[4-(cyclopropylsulfonyl)phenyl]-2-(tetrahydro-2H-pyran-4-yl)ethyl}-1H-pyrrol-2-yl)-1,3-thiazol-5-yl]methyl}-2-(ethylsulfonyl)ethanamine hydrochloride], the Emax at 10 µM was determined as 155%.
Molecule `COC(OC)C(C)(O)c1cnc(-c2ccc(C(CC3CCOCC3)c3ccc(S(=O)(=O)C4CC4)cc3)[nH]2)s1` (stereo not shown) [Example 164, 2-[2-(5-{1-[4-(cyclopropylsulfonyl)phenyl]-2-(tetrahydro-2H-pyran-4-yl)ethyl}-1H-pyrrol-2-yl)-1,3-thiazol-5-yl]-1,1-dimethoxypropan-2-ol] yielded an Emax at 10 µM of 148%.
Still for that read-out and setting: in the case of `CC(O)c1cnc(-c2ccc(C(CC3CCOCC3)c3ccc(S(C)(=O)=O)c(Cl)c3)[nH]2)s1` (stereo not shown) [Example 172, 1-[2-(5-{1-[3-chloro-4-(methylsulfonyl)phenyl]-2-(tetrahydro-2H-pyran-4-yl)ethyl}-1H-pyrrol-2-yl)-1,3-thiazol-5-yl]ethanol] it was 148%; in that of `COCC(O)c1ccc(-c2ccc(C(CC3CCOCC3)c3ccc(S(=O)(=O)C4CC4)cc3)[nH]2)nc1` (stereo not shown) [Example 177, 1-[6-(5-[1-[4-(cyclopropylsulfonyl)phenyl]-2-(tetrahydro-2H-pyran-4-yl)ethyl]-1H-pyrrol-2-yl)pyridin-3-yl]-2-methoxyethanol], 171%.
The molecule `CS(=O)(=O)c1ccc(C(C[C@H]2CCC(=O)C2)c2ccc(-c3ccc(CO)cn3)[nH]2)cc1Cl` (stereo partly shown) [Example 197] came in with an Emax at 10 µM of 142%.
As for `CC(O)c1nnc(-c2ccc(C(CC3CCOCC3)c3ccc(S(=O)(=O)C4CC4)cc3)[nH]2)s1` (stereo not shown) [Example 225, 1-[5-(5-{1-[4-(cyclopropylsulfonyl)phenyl]-2-(tetrahydro-2H-pyran-4-yl)ethyl}-1H-pyrrol-2-yl)-1,3,4-thiadiazol-2-yl]ethanol], the Emax at 10 µM came to 141%.
Still for that read-out and setting: in the case of `O=S(=O)(c1ccc(C(CC2CCOCC2)c2ccc(-c3nnc(CN4CC(O)C4)s3)[nH]2)cc1)C1CC1` (stereo not shown) [Example 227, 1-{[5-(5-{1-[4-(cyclopropylsulfonyl)phenyl]-2-(tetrahydro-2H-pyran-4-yl)ethyl}-1H-pyrrol-2-yl)-1,3,4-thiadiazol-2-yl]methyl}azetidin-3-ol] it was 129%; in that of `O=S(=O)(c1ccc(C(CC2CCOCC2)c2ccc(-c3nnc(CN4CCOCC4)s3)[nH]2)cc1)C1CC1` (stereo not shown) [Example 228, 4-{[5-(5-{1-[4-(cyclopropylsulfonyl)phenyl]-2-(tetrahydro-2H-pyran-4-yl)ethyl}-1H-pyrrol-2-yl)-1,3,4-thiadiazol-2-yl]methyl}morpholine], 145%; in that of `O=S(=O)(c1ccc(C(CC2CCOCC2)c2ccc(-c3ccc(Cn4cncn4)cn3)[nH]2)cc1)C1CC1` (stereo not shown) [Example 237, 2-(5-{1-[4-(cyclopropylsulfonyl)phenyl]-2-(tetrahydro-2H-pyran-4-yl)ethyl}-1H-pyrrol-2-yl)-5-(1H-1,2,4-triazol-1-ylmethyl)pyridine], 152%.

Tested on in the next series: not given
Test: not given
Details: not given
For `CCS(=O)(=O)CCNCc1cnc(-c2ccc(C(CC3CCOCC3)c3ccc(S(=O)(=O)C4CC4)cc3)[nH]2)s1.Cl` (stereo not shown) [Example 160, N-{[2-(5-{1-[4-(cyclopropylsulfonyl)phenyl]-2-(tetrahydro-2H-pyran-4-yl)ethyl}-1H-pyrrol-2-yl)-1,3-thiazol-5-yl]methyl}-2-(ethylsulfonyl)ethanamine hydrochloride], the melting point lay in the range of 127 to 129 °C.
In turn, `O=S(=O)(c1ccc(C(CC2CCOCC2)c2ccc(-c3ccc(Cn4cncn4)cn3)[nH]2)cc1)C1CC1` (stereo not shown) [Example 237, 2-(5-{1-[4-(cyclopropylsulfonyl)phenyl]-2-(tetrahydro-2H-pyran-4-yl)ethyl}-1H-pyrrol-2-yl)-5-(1H-1,2,4-triazol-1-ylmethyl)pyridine] had a melting point of 152 to 153 °C.
